Experiments:
mammalian blood = settings: dry powder on blood; cited from earlier work
[1] = solubility in water or saline solution; assay type: physicochemical; settings: for strontium ferrate water or saline solution
[2] = cited from earlier work

Compound | hemostasis (background) (mammalian blood) | solubility in water [1] | solubility in water (background) [2]
[O-2].[Sr+2] [Strontium oxide] | some hemostasis |  | 
[Fe+4].[O-2].[O-2].[O-2].[O-2].[Sr+2].[Sr+2] [Strontium ferrate, strontium ferrate] |  | very insoluble | 
OO.[Zn] [Zinc peroxide (ZnO2), Zinc peroxide] | some hemostatic activity |  | 
[Ba+2].[O]=[Fe](=[O])([O-])[O-] [barium ferrate (BaFeO4), barium ferrate] |  |  | practically insoluble
[O]=[Fe][O][Fe]=[O] [Ferric oxide] |  | insoluble | 
strontium ferrate [strontium ferrate (SrFeO4)] |  |  | practically insoluble
